Test results reported in patent publication US7166611B2, “Pharmaceutical compositions having appetite suppressant activity” (priority 1997, dated 2007).

Columns and labels:
Format in all cases: in vivo, rat
[1] = Example 44 single oral dose study: bodyweight
Protocol: (§1) Sample 1 to 3 were each administered as a single oral dose to male Wistar rats. Two additional control groups received vehicle (distilled water or DMSO). Orally administered fenfluramine (7.5 mg/kg) was included as a reference standard.
(§2) Fifty-five male Wistar rats were used for the study.
(§3) Bodyweights, food consumption (food hopper weight) and water consumption (bottle weight) were recorded daily at the same time each day from the day of arrival until the termination of the study.
(§4) On Day 1, the rats received a single oral (gavage) dose according to the following table:
(§5) Groups 1–8 were dosed using a constant dose volume of 10 ml/kg and groups 9–12 were dosed using a dose volume of 1 ml/kg.
(§6) The post-dose food and water consumption measurements and bodyweights at each time-point for the P57-treated animals were compared with those for the relevant, similarly-treated vehicle control group using analysis of variance followed by Williams' test for comparisons with controls.
(§7) The data for the fenfluramine-treated animals was compared with that for the vehicle-treated control group using Student's t test.

male Wistar rats [2] = assay: Example 44 single oral dose study: liver histopathology
Source text: Following the measurements of Day 8, the animals were killed by carbon dioxide asphyxiation, and the livers excised and placed in 10% buffered formalin, prior to histology.
Paraffin wax sections of each liver were taken at 4–5 μm and stained with haematoxylin and eosin. Additional sections were cut on a cryostat at 12 μm and stained for fat with Oil Red O (ORO).
Histological examination was restricted to the liver.

male Wistar rats [3] = assay: Example 44 single oral dose study: food consumption
Protocol: as §1, §2, §3, §4, §5
(§8) Food and water consumption were also measured at […] after dosing on Day 1.
as §6, §7

male Wistar rats [4] = assay: Example 44 single oral dose study: water consumption
Protocol: as §1, §2, §3, §4, §5, §8, §6, §7

[5] = 7.5 mg/kg single oral dose on Day 1
[6] = pre-dose data, before treatment, table rows = later dose groups
[7] = Group 11, 7.5 mg/kg, 3 examined

SMILES: CCNC(C)Cc1cccc(C(F)(F)F)c1 (centres unmarked) [Fenfluramine, reference compound]
- effects on bodyweight ([1]; 7.5 mg/kg single oral dose): No statistically significant effects
- Group mean bodyweight (g ± sd) on Day: 2 [1, 5]: 190.3 ± 10.97 g
- Group mean bodyweight (g ± sd) on Day: 3 [1, 5]: 197.7 ± 7.37 g
- Group mean bodyweight (g ± sd) on Day: 4 [1, 5]: 207.7 ± 7.23 g
- Group mean bodyweight (g ± sd) on Day: 5 [1, 5]: 217.7 ± 10.69 g
- Group mean bodyweight (g ± sd) on Day: 6 [1, 5]: 224.3 ± 10.12 g
- Group mean bodyweight (g ± sd) on Day: 7 [1, 5]: 234.3 ± 12.70 g
- Group mean bodyweight (g ± sd) on Day: 8 [1, 5]: 243.3 ± 9.24 g
- Group mean bodyweight (g ± sd) on Day: Pre-dose (1) ([1]; Day 1 before dosing): 190.3 ± 9.71 g
- Group mean bodyweight (g ± sd) on Day: −1 [1, 6]: 182.8 ± 10.21 g
- Group mean bodyweight (g ± sd) on Day: −2 [1, 6]: 170.0 ± 9.15 g
- Group mean bodyweight (g ± sd) on Day: −3 [1, 6]: 160.0 ± 9.82 g
- Group mean bodyweight (g ± sd) on Day: −4 [1, 6]: 152.7 ± 9.09 g
- Group mean bodyweight (g ± sd) on Day: −5 [1, 6]: 133.2 ± 9.21 g
- Liver (ORO stain): Hepatocyte fat - centrilobular(Total) (male Wistar rats [2]; [7]): 1
- Liver (ORO stain): Hepatocyte fat - centrilobular, Minimal (male Wistar rats [2]; [7]): 1
- Liver (ORO stain): No abnormalities detected (male Wistar rats [2]; [7]): 2
- Liver: Hepatocyte necrosis - focal (Total) (male Wistar rats [2]; [7]): 0
- Liver: Hepatocyte necrosis - focal, Minimal (male Wistar rats [2]; [7]): 0
- Liver: No abnormalities detected (incidence) (male Wistar rats [2]; [7]): 0
- Liver: Parenchymal inflammatory cell foci (Total) (male Wistar rats [2]; [7]): 0
- Liver: Parenchymal inflammatory cell foci, Minimal (male Wistar rats [2]; [7]): 0
- Liver: Portal leucocytes (Total) (male Wistar rats [2]; [7]): 0
- Liver: Portal leucocytes, Minimal (male Wistar rats [2]; [7]): 0
- Liver: Portal lymphoid infiltration (Total) (male Wistar rats [2]; [7]): 3
- Liver: Portal lymphoid infiltration, Minimal (male Wistar rats [2]; [7]): 3
- histological examination of the liver (male Wistar rats [2]; all doses tested, single oral dose, livers taken Day 8): No treatment-related changes were detected
- Group mean food consumption (g ± sd) between Days: 1–2 (male Wistar rats [3]; 7.5 mg/kg single oral dose): 22.4 ± 3.19 g
- Group mean food consumption (g ± sd) between Days: 2–3 (male Wistar rats [3]; 7.5 mg/kg single oral dose): 31.9 ± 0.84 g
- Group mean food consumption (g ± sd) between Days: 3–4 (male Wistar rats [3]; 7.5 mg/kg single oral dose): 32.7 ± 2.50 g
- Group mean food consumption (g ± sd) between Days: 4–5 (male Wistar rats [3]; 7.5 mg/kg single oral dose): 33.0 ± 2.55 g
- Group mean food consumption (g ± sd) between Days: 5–6 (male Wistar rats [3]; 7.5 mg/kg single oral dose): 30.4 ± 0.23 g
- Group mean food consumption (g ± sd) between Days: 6–7 (male Wistar rats [3]; 7.5 mg/kg single oral dose): 32.7 ± 1.90 g
- Group mean food consumption (g ± sd) between Days: 7–8 (male Wistar rats [3]; 7.5 mg/kg single oral dose): 32.4 ± 1.60 g
- food consumption at 6 and 24 hours post-dose versus vehicle-treated control group (male Wistar rats [3]; 7.5 mg/kg single oral dose): statistically significant reductions in food consumption
- Group mean food consumption (g ± sd) between Days: −2–−1 (male Wistar rats [3]; [6]): 29.7 ± 2.84 g
- Group mean food consumption (g ± sd) between Days: −3–−2 (male Wistar rats [3]; [6]): 30.8 ± 0.54 g
- Group mean food consumption (g ± sd) between Days: −4–−3 (male Wistar rats [3]; [6]): 27.0 ± 1.53 g
- Group mean food consumption (g ± sd) between Days: −5–−4 (male Wistar rats [3]; [6]): 25.3 ± 4.03 g
- Group mean food consumption (g ± sd) between Days: −6–−5 (male Wistar rats [3]; [6]): 29.1 ± 0.66 g
- Group mean water consumption (g ± sd) between Days: 1–2 (male Wistar rats [4]; 7.5 mg/kg single oral dose): 34.1 ± 3.60 g
- Group mean water consumption (g ± sd) between Days: 2–3 (male Wistar rats [4]; 7.5 mg/kg single oral dose): 37.2 ± 1.48 g
- Group mean water consumption (g ± sd) between Days: 3–4 (male Wistar rats [4]; 7.5 mg/kg single oral dose): 36.7 ± 3.92 g
- Group mean water consumption (g ± sd) between Days: 4–5 (male Wistar rats [4]; 7.5 mg/kg single oral dose): 33.8 ± 2.89 g
- Group mean water consumption (g ± sd) between Days: 5–6 (male Wistar rats [4]; 7.5 mg/kg single oral dose): 33.7 ± 5.43 g
- Group mean water consumption (g ± sd) between Days: 6–7 (male Wistar rats [4]; 7.5 mg/kg single oral dose): 32.1 ± 1.93 g
- Group mean water consumption (g ± sd) between Days: 7–8 (male Wistar rats [4]; 7.5 mg/kg single oral dose): 33.6 ± 2.50 g
- effects on water consumption (male Wistar rats [4]; 7.5 mg/kg single oral dose): No statistically significant effects
- Group mean water consumption (g ± sd) between Days: −2–−1 (male Wistar rats [4]; [6]): 31.6 ± 2.80 g
- Group mean water consumption (g ± sd) between Days: −3–−2 (male Wistar rats [4]; [6]): 30.9 ± 2.12 g
- Group mean water consumption (g ± sd) between Days: −4–−3 (male Wistar rats [4]; [6]): 34.7 ± 3.73 g
- Group mean water consumption (g ± sd) between Days: −5–−4 (male Wistar rats [4]; [6]): 35.5 ± 7.49 g
- Group mean water consumption (g ± sd) between Days: −6–−5 (male Wistar rats [4]; [6]): 47.0 ± 5.3 g
